Laboratory results as given in PMC9950073, “Alleviation of arthritis through prevention of neutrophil extracellular traps by an orally available inhibitor of protein arginine deiminase 4” (Scientific Reports, 2023).

How the values were obtained:
[1] = test system: histone H3 citrullination in human neutrophils; test: Citrullination assay in human neutrophils (citrullinated H3 ELISA); format: cell-based; details: Neutrophil
Source text: All blood samples from healthy donors who participated in this study were obtained after informed consent in accordance with relevant guidelines and regulations given by the ACE Independent ethics committee for Jubilant Biosys Ltd and Office of Clinical Investigations at Boston Children’s Hospital. The ACE Independent ethics committee, Bangalore, approved the use of human whole blood/PBMC/Enriched Subset in Jubilant Biosys Ltd investigations, Drug Controller General of India (DCGI) Reg No. ECR/141/Indt/KA/2013. Briefly, 10 mL K2EDTA vacutainers were used to collect fresh blood from healthy donors (BD vacutainer, Catalog No: BD 367525). A total of 50 ml of blood was taken from a single, healthy human donor. Neutrophils were isolated from human blood using the EasySep Direct Human Neutrophil Isolation Kit, according to the manufacturer's instructions (Stem Cell Technology, Catalog No: 19666). […]
Citrullinated H3 Enzyme linked immunosorbent Assay (ELISA) was performed as per manufacturer’s instructions (Cayman chemicals, Catalog No: 501620). Neutrophils obtained as mentioned above were counted and cell suspension was prepared in complete RPMI media. […] IC50 values were determined by sigmoidal dose–response curve (variable slope) in Graph Pad Prism 5 software.

[2] = test system: G-CSF-modified collagen-induced arthritis; test: G-CSF-modified collagen-induced arthritis model; format: in vivo, C57BL/6 mice
Method: C57BL/6 mice aged 8– 12 weeks were immunized with the emulsion of complete Freund's adjuvant (CFA, catalog number: 7023, Chondrex, Redmond, WA) and 100 μg of chicken type II collagen (catalog number: 20012, Chondrex) in a 1:1 mixture (total 100 μl) subcutaneously into the base of the tail on day 0[18]. The booster immunization of CII with incomplete Freund's adjuvant (catalog number: 7002, Chondrex) was performed on day 21. Recombinant human G-CSF (Filgrastim, Neupogen, Amgen, Inc., Thousand Oaks, CA) was injected at 10 μg peritoneally once daily from day 20 to day 23. Vehicle (water) or 50 mg/kg of JBI-589 was orally administered twice daily from day 20 to day 56. The severity of arthritis was evaluated using the following clinical scoring system for each limb: 0, normal; 1, swelling in one finger joint; 2, swelling in more than one finger joint or wrist or ankle joint; 3, swelling in the entire paw; and 4, deformity and or ankylosis. The maximum score was 16 per mouse. […] At the end of the study, all mice were euthanized after giving anesthesia using 2% isoflurane (Patterson Veterinary, catalog number: 07–893-2374). […]
H&E stain of joint tissue was performed following the previously described method.
Inflammation was scored on a scale of 0 (no inflammation) to 3 (severe inflamed joint) depending on the number of inflammatory cells in the synovial cavity (exudate) and synovial tissue (infiltrate)[39]. […]
Expressions of target proteins in synovial tissue on the joint surface of wrists and ankles were determined by immunoblotting. Synovial tissue was homogenized in radioimmunoprecipitation assay (RIPA) buffer (catalog number: 89901, Thermo Fisher Scientific) with protease inhibitor cocktails (catalog number: R0278, Sigma, St. Louis, MO) on ice. Following centrifugation at 20,000 g for 20 min at 4 °C, the protein content of the supernatant was determined by the Bradford protein assay (catalog number: 5000006, Bio-Rad Laboratories), and an equal amount of protein per sample was used. Protein lysate was resolved on gradient gels (Bolt 4–12% Bis–Tris Plus gels, catalog number: NW04122BOX, Life Technologies) and electroblotted on polyvinylidene difluoride (PVDF) membranes (catalog number: IB401001, Invitrogen) using the iBlot system (Thermo Fisher Scientific). After blocking with 5% BSA TBS-T buffer (0.05% Tween-20 in 1 × TBS) for 1 h at room temperature, the membranes were incubated with primary antibodies against myeloperoxidase (MPO, 1:500, catalog number: A0398, DAKO, Santa Clara, CA) or citrullinated histone H4 (H4Cit, 1: 1,000, catalog number: 07-596, Millipore, Burlington, MA) at 4 °C overnight, and subsequently with goat anti-rabbit IgG (H + L)- HRP (1:10,000, catalog number: 1706515, Bio-Rad) for 2 h at room temperature. Blots were developed with enhanced chemiluminescence substrate (catalog number: 32106, Thermo Fisher Scientific). Equal loading was confirmed by GAPDH (catalog number: G9545-200UL, 1: 10,000, Sigma). The intensity of the bands on blots was quantified using ImageJ software.

[3] = Plasma protein binding (equilibrium dialysis); format: in vitro ADME; details: pH 7.4, plasma across species, read-out: PPB (% unbound)
Method: Plasma protein binding: 10 µM of JBI-589 was mixed with plasma from different species (in sodium phosphate buffer, pH 7.4) was added to the plasma side of the 96-well micro-equilibrium dialysis device and sodium phosphate buffer (pH 7.4) was added to the other half of the device. The device was incubated at 37 ± 1 °C for 14 h with constant shaking. After the incubation time, plasma and buffer were collected from either side, quenched (0.5% formic acid in internal standard (IS) containing ACN), centrifuged and supernatant was used for LC–MS/MS analysis. Percent of unbound compound was calculated as follows: Percent unbound: [peak area ratio in buffer side/dilution factor]/peak area ratio in plasma side × 100; Peak area ratio: compound peak area/internal standard peak area.

[4] = Microsomal stability, RLM; format: in vitro ADME, rat; details: 1 µM, liver microsomes 0.5 mg/mL; one range given for HLM/MLM/DLM/RLM
Method: Microsomal stability: Liver microsomes (0.5 mg/mL) from different species were incubated with JBI-589 (1 µM) with or without NADPH (1 mM) at 37 °C for 30 min in potassium phosphate buffer (pH 7.4) and then reaction was stopped with quenching solution (0.5% Formic acid in internal standard (IS) containing ACN). Resulting samples were centrifuged and supernatant was taken for LC–MS/MS analysis. Percent metabolism was calculated as follows: % Metabolized: [1 − (test area ratio/control area ratio)] *100.

[5] = 50 mg/kg orally twice daily day 20 to day 56

IC50 ([1]; Fig. 1c, human neutrophils, calcium ionophore, x axis μM): 0.146 µM | EC50 ([1]; human neutrophils induced by 25 µM calcium ionophore, ELISA, read-out: EC50, inhibition of histone H3 citrullination): 146 nM | fraction unbound at 14 h, 10 µM [3]: 0.05 to 0.1 | RLM % metabolized @ 30 min [4]: 25-50%
SMILES: Cc1c(-c2cc3ccccc3n2Cc2ccc(F)cc2)nc2cc(C(=O)N3CCC[C@@H](N)C3)ccn12 [JBI-589, (R)-(3-aminopiperidin-1-yl)(2-(1-(4-fluorobenzyl)-1H-indol-2-yl)-3-methylimidazo[1,2-a]pyridin-7-yl)methanone]
effect on arthritis incidence [2, 5]: significant effect | effect on arthritis severity [2, 5]: significant effect | lesions positive for H3Cit and Ly6G and DNA within the joint space and on the bone surface (immunofluorescence) ([2]; ankle joints day 56, present in vehicle-treated mice): not in JBI-589-treated mice | eroded surface of bones (micro-CT) ([2]; ankle joints, vs control mice): fewer areas of eroded surface | plasma levels of H3Cit ([2]; day 22, vs vehicle): lower | serum IL-6 ([2]; day 56, vs vehicle): reduced | serum anti-Collagen Type II (CII) IgG2c antibody level ([2]; day 56, vs vehicle): comparative | serum anti-Collagen Type II (CII) IgG antibody level ([2]; day 56, vs vehicle): comparative | H4Cit in synovial tissue (western blot) ([2]; vs vehicle): less | Myeloperoxidase (MPO) in synovial tissue (western blot) ([2]; vs vehicle): less | inflammation (exudate and infiltrate), H&E staining of ankle joint ([2]; vs vehicle): alleviated severity of arthritis | serum anti-H3Cit antibody ([2]; vs vehicle): less
